Literature values, collected in US12697315B2, “Treatment for interstitial lung disease” (United Therapeutics Corporation, priority 2020, dated 2026).
Like-named read-outs stand apart in the source and are kept apart here.

Test system: IPF
Conditions: 52 weeks, cited from earlier work

Compound	FVC % predicted, placebo corrected, rate of decline [% predicted]	FVC, placebo corrected, rate of decline	FVC, placebo corrected, rate of decline (pirfenidone) [mL]
COC(=O)c1ccc2c(c1)NC(=O)/C2=C(\Nc1ccc(N(C)C(=O)CN2CCN(C)CC2)cc1)c1ccccc1 [Nintedanib, nintedanib]	3.2	~ 109 mL	–
Cc1ccc(=O)n(-c2ccccc2)c1 [Pirfenidone, pirfenidone]	–	–	153 to 193
